Reference: patent US20110064773A1, “PHARMACEUTICAL COMPOSITIONS COMPRISING A THYROID HORMON AND THEIR THERAPEUTIC USE” (UNIVERSITE JOSEPH FOURIER, priority 2007, published 2011)
Entries after “also recorded” stand apart in the source; their conditions may differ.

What was measured:
Assay type in all cases: in vivo, rat
ZDF rats [1] = assay: Glycaemia, insulinaemia and pancreas mass in ZDF diabetic rats
Method: Rats were genetically obese normoglycemic (Zucker or Fa/Fa), 10-11 week-old diabetic rats (ZDF), genetic non-overweight diabetic (type 2 diabetes) rats (Goto-Kakizaki (GK) model), non-overweight diabetic (type 2 diabetes) rats n0STZ model or normal Wistar rats submitted to an 8-week high-fat high sucrose diet (a model of nutritional induction of insulin resistance).
The day of the study, after a fasted period overnight (18 h), blood samplings will be taken in awaked rats from the tail vein.
Insulin levels were determined with commercial kits (Linco Research).
(§1) Glucose and 3-hydroxybutyrate (3-HB) were measured enzymatically and non esterified fatty acid (NEFA) by colorimetric assay (Wako Chemicals).
ZDF diabetic rats are a good model for studying the anti-diabetic treatments, since these animals develop a major hyperglycaemia during their life due to the combination of moderate obesity and pancreas degeneracy. To date, treatments are ineffective when the hyperglycaemia is established.
Then ZDF rats were treated with low doses of rT3 for 21 days (2.5 μg/100 g BW/day) and the glycaemia, insulinaemia were measured after 8, 16 and 21 days.

[2] = tested on: mitochondrial glycerol 3-phosphate dehydrogenase (mGPdH); assay: Mitochondrial glycerol 3-phosphate dehydrogenase (mGPdH) activity in liver mitochondria of treated rats; conditions: Wistar rats; for Mitochondrial GPdH activity: 2.5 μg/100 g continuous, 21 days
Method: Mitochondrial glycerol 3-phosphate dehydrogenase (mGPdH) activity was measured on the supernatant of isolated mitochondria after three cycles of freezing-thawing. Forty μg of mitochondria were incubated in a KH2PO4/K2HPO4 buffer (50 mM, pH 7.5) containing 9.3 μM of antimycin A, 5 μM of rotenone and decylubiquinone (50 μM). The reduction of 50 μM dichloro-indophenol (DCIP) by mGPDH was measured spectrophotometrically at 600 nm at 37° C. and enzymatic activity was expressed as μmol·min^−1·mg prot^−1.

GK rats = assay: Oral glucose tolerance test (OGTT) and pancreas mass in GK rats; conditions: 2.5 μg/100 g BW
Method: GK rats are diabetic non obese with moderate insulin-resistance, and have lower pancreatic cells than control rats. The pancreatic cells are also less efficient in the insulin secretion.
The glucose resistance of these animals was tested by an oral glucose tolerance test (OGTT) Animals were fed with 2 g/kg BW of glucose and the Glucose concentration and Insulin concentration in blood were measured.
The glucose concentration (FIG. 40) and insulin concentration (FIG. 41) were then measured for this time.

ZDF rats [3] = assay: Body composition of ZDF rats
Description: (§2) At the end of the experimental period, animals were sacrificed by decapitation, in order to avoid the well-known effects of general anesthetics on mitochondrial metabolism. Blood samples were immediately collected and plasma was frozen for subsequent determination of serum metabolites and hormones. Liver, muscles and fat depots were quickly excised and weighed. Liver median lobe was rapidly freeze-clamped. Muscles (plantaris, soleus and gastrocnemius) were frozen in isopentane precooled in liquid nitrogen. Mesenteric fat consisted of adipose tissue surrounding the gastro-intestinal tract from the gastro-oesophageal sphincter to the end of the rectum with special care taken in distinguishing and removing the pancreas. Retroperitoneal fat pad was taken as the distinct depot behind each kidney along the lumbar muscles. Epididymal fat consisted of adipose tissue on top of the epididymis. For subcutaneous depot measurement, a rectangular piece of skin was taken on the right side of each animal from the median line of the abdomen between the spine and the right hip to the first rib. Interscapular brown adipose tissue was removed and dissected free from adjacent muscles and white adipose tissue. The heart ventricles, the right kidney and the spleen were also excised, weighed and frozen.

ZDF rats [4] = assay: Plasma lipid profiles of ZDF rats; conditions: 2.5 μg/100 g BW, day of sacrifice
Description: as §2, §1
Triglycerides and cholesterol were measured by classical routine automate apparatus.
To better understand the lipid metabolism, lipid profiles of free fatty acid (FFA, FIG. 29), triglycerides (FIG. 30), cholesterol (FIG. 31) and high density lipoprotein (HDL, FIG. 32) were analysed.

ZDF rats [5] = assay: Indirect calorimetry (EE, RQ) of ZDF rats
Description: Energy expenditure as well as the nature of substrate oxidized (carbohydrates or lipids) were investigated by indirect calorimetry. This principle is based on the determinations of CO2 release (VCO2) and O2 consumption (VO2) by each animal. It assumes that O2 is entirely involved in substrate oxidation in the respiratory chain (leading to water production) while CO2 release is related to substrate decarboxylation (in the Krebs' cycle). These measurements allow assessing energy expenditure (EE) and respiratory quotient ([…], RQ). EE represent the absolute energy dissipation during rest and activity. RQ is a relative measurement indicating the ratio of carbohydrate versus lipid involved in oxidative pathway. A ratio of 1.0 indicates exclusive carbohydrate oxidation while a ratio of 0.7 indicates exclusive lipid oxidation. Each value between these two extreme values indicates the relative proportion of each substrate (of note protein oxidation was not evaluated). As an example, RQ approaches 0.7 during fasting, indicating lipid oxidation, conversely after feeding RQ increases close to 1 indicating carbohydrate oxidation resulting from food intake and blood insulin rise. Likewise, animals fed high-carbohydrate diets have higher RQs than those fed high-fat diets.
The indirect calorimetry system (Panlab, Barcelona, Spain) consists of cages, pumps, flow controllers, valves, and analyzers. It is computer-controlled in order to sequentially measure O2 and CO2 concentrations as well as air flow in four separate cages allowing four simultaneous determinations. Rats are isolated in one of the four metabolic chambers, and room air is used as a reference to monitor ambient O2 and CO2 concentrations periodically.
At predefined intervals, the computer sends a signal to store differential CO2 and O2 concentrations, flow rate, allowing computing VCO2, VO2, RQ, and EE (Weir equation) with data acquisition hardware (Metabolism, Panlab, Barcelona, Spain).

[6] = 2 g/kg glucose, 3 hours, vs placebo

N[C@@H](Cc1ccc(Oc2cc(I)c(O)c(I)c2)c(I)c1)C(=O)O [rT3, 3′,5′,3-triiodothyronine]
Insulin level (blood insulin concentration) (ZDF rats [1]; 2.5 μg/100 g BW/day, up to 21 days, placebo progressively decreases): maintained; also recorded: increasing plasmatic insulin concentration | Pancreas mass (ZDF rats [1]; 2.5 μg/100 g BW/day, vs placebo): increased | Glycaemia (blood glucose concentration) (ZDF rats [1]; low dose 2.5 μg/100 g BW/day, 8, 16 and 21 days, vs placebo): large reduction; also recorded: decreasing glucose concentration | Enzymatic activity of mitochondrial glycerol-3-phosphate dehydrogenase ([2]; liver mitochondria, high dose 25 μg/100 g): significantly increased | Enzymatic activity of mitochondrial glycerol-3-phosphate dehydrogenase (mGPdH) ([2]; liver mitochondria, low dose 2.5 μg/100 g, sub-cutaneous pellet): significantly increased; also recorded: more enhanced | Mitochondrial GPdH activity ([2]; intra-peritoneal pump): enhanced | Mitochondrial GPdH activity ([2]; sub-cutaneous pump): enhanced | AUC of the glucose concentration after OGTT (GK rats; [6]): significantly reduced | AUC of the insulin concentration after OGTT (GK rats; [6]): largely enhanced | Kinetic of blood glucose concentration after OGTT (GK rats; 5 first minutes following the OGTT): regulate more rapidly | Kinetic of insulin concentration after OGTT (GK rats; 20 min kinetic): increase | Pancreas mass (GK rats; vs placebo): increase | Brown adipose tissue mass (ZDF rats [3]; 2.5 μg/100 g BW): increase | Muscular mass (ZDF rats [3]; 2.5 μg/100 g BW): not affected | White adipose tissue (ZDF rats [3]; 2.5 μg/100 g BW): seems not to be affected | Fat mass (photography, FIG. 21) (ZDF rats [3]; low dose of rT3, 21 days, vs placebo): reduced | Cholesterol level (ZDF rats [4]): not influenced | FFA in blood (ZDF rats [4]): significantly enhanced | Triglycerides in blood (ZDF rats [4]): significantly reduced | Energy expenditure (ZDF rats [5]; 2.5 μg/100 g BW, vs placebo): enhanced | Respiratory quotient (RQ) (ZDF rats [5]; 2.5 μg/100 g BW, vs placebo): enhanced | Energy expenditure, enhancement (ZDF rats [5]; low dose of rT3): +50%
